Legend:
[1] = test system: acute radiation-induced dermatitis; assay: Blinded clinical dermatitis scoring in mouse radiation dermatitis model; assay type: in vivo, Balb/c mice; details: 150 mg/mL CBD
[2] = test system: 3D in vitro skin model containing epidermal keratinocytes and dermal fibroblasts; assay: Gene expression changes (178 genes) in 3D in vitro skin model; assay type: cell-based; details: for Regulated genes (function): UV exposed tissues, baseline Group K
Protocol: (§1) A 3D in vitro skin model containing epidermal keratinocytes and dermal fibroblasts was used. Some tissues were irradiated with 200 mJ UVB/cm^2. Test materials were applied topically for 24 hours (after UVB exposure) and an MTT assay was used to check the viability of cells. The following treatment groups were used: • olive oil (no CBD); • CBD in olive oil in concentrations of 30, 60, 120, and 250 mg/mL; • No treatment; and • Triton-X® as positive control.
Next, changes in gene expression for 178 genes were measured in tissues. Statistical significance was determined using unpaired t-test, P<0.05, N=4.

[3] = Body weight change in irradiated mice; assay type: in vivo, Balb/c mice
Protocol: (§2) A study was performed on mice to determine the efficacy of topically-dosed CBD in an olive oil vehicle for the treatment of acute radiation-induced dermatitis. Three different CBD dosages were used— 30 mg/mL (3 wt %), 120 mg/mL (12 wt %), and 250 mg/mL (25 wt %).
(§3) 144 female Balb/c mice with an average starting body weight (±SEM) of 17.96±0.12 grams were randomized into six (6) groups of 24 animals each, as follows:
(§4) The control group (Group 1) was not irradiated. The animals in Groups 2-6 were anesthetized via a single intraperitoneal injection of xylazine and ketamine prior to being administered a single dose of 30 Grays (Gy) of radiation directed at a 2 cm×4 cm patch of shaved dorsal skin on Day 0. Radiation was generated by a 160 kVp (15-ma) X-ray source at a focal distance of 10 cm, hardened with a 0.35 mm Cu filtration system at a rate of approximately 3.2 Gy/minute.
(§5) Dosing for animals in Groups 3-6 began on Day 0 immediately after radiation. Treatments were administered topically (0.1 mL per animal) daily from Days 0-28.
(§6) Starting on Day 8 and continuing every other day thereafter (Days 8-28), each animal was evaluated for skin redness and dermatitis, and photographed for subsequent blinded scoring of dermatitis at the completion of the study. Body weight was taken daily.

[4] = test system: acute radiation-induced dermatitis; assay: Skin redness scoring in mouse radiation dermatitis model; assay type: in vivo, Balb/c mice; parameters: key to Redness score (mean): visual redness score, scale 0 to 3 in 0.5 increments; details: for Redness score % Change CBD vs. Group 3: vs olive oil only; for Redness score % Change CBD vs. Group 2: vs radiation only
Protocol: as §2, §3, §4, §5, §6
Skin redness was scored visually by comparison to a photographic scale, and reported on a scale of 0 to 3 in 0.5 unit increments. The scale is described in the table below:
Data were evaluated using one-way ANOVA with Dunnett's multiple comparisons test to compare all groups to the vehicle control group using GraphPad Prism 8.4.3 (La Jolla, CA Duration of dermatitis data was evaluated using the Chi-square test to compare all groups to the vehicle-control group and radiation only group using SigmaPlot 11.0 (Systat Software, Inc.). Statistical significance was achieved when p<0.05.

[5] = test system: 3D in vitro skin model containing epidermal keratinocytes and dermal fibroblasts; assay: LDH cytotoxicity assay in 3D in vitro skin model; assay type: cell-based; details: light or radiation study, UV (200 mJ UVB/cm^2), topical 24 h
Protocol: as §1
(§7) Cytotoxicity was assessed with a lactate dehydrogenase (LDH) assay using media collected from the wells of the tissues. Increased LDH activity is an indicator of damaged or dead cells.
(§8) The results are provided in the following Table A, with the untreated group defining 0% cytotoxicity and Triton-X defining 100% cytotoxicity. Lower cytotoxicity is better. * indicates p≤0.05 and ** indicates p≤0.01 statistical significance after performing unpaired t-test.

[6] = LDH cytotoxicity assay in 3D in vitro skin model; assay type: cell-based; details: no UV, topical 24 h
Protocol: as §1, §7, §8

## C=C(C)[C@@H]1CCC(C)=C[C@H]1c1c(O)cc(CCCCC)cc1O [CBD, 2-[(1R,6R)-6-Isopropenyl-3-methylcyclohex-2-en-1-yl]-5-pentylbenzene-1,3-diol]
[1]
  % Days ≥2: 61.22%
[2]; 30 mg/mL CBD in olive oil (Group G)
  Regulated genes (function): associated with cell renewal, tissue remodeling, anti-apoptotic pathway, and extracellular matrix integrity
[2]; 120 mg/mL CBD in olive oil (Group I)
  Regulated genes (function): associated with antioxidant/stress response
[2]; CBD in olive oil 30-250 mg/mL (Groups B-E), healthy tissues, baseline Group A (olive oil)
  Genes with FC of 2 or greater: four
[3]; 30 mg/mL and 120 mg/mL CBD groups, topical daily Days 0-28, FIG. 1
  Percent weight change over time: most closely followed the curve of the naïve group
[3]; three CBD-treated groups (30, 120, 250 mg/mL)
  Percent weight change, difference between CBD-treated groups and the other three groups: not found to be statistically significant
[4]; CBD-treated groups condensed (30, 120, 250 mg/mL), Day 8
  Redness score (mean): 0.81
[4]; CBD-treated groups condensed, Day 10
  Redness score (mean): 1.06
[4]; CBD-treated groups condensed, Day 12
  Redness score (mean): 1.07
[4]; CBD-treated groups condensed, Day 14
  Redness score (mean): 1.16
[4]; CBD-treated groups condensed, Day 16
  Redness score (mean): 1.43
[4]; CBD-treated groups condensed, Day 18
  Redness score (mean): 1.40
[4]; CBD-treated groups condensed, Day 20
  Redness score (mean): 1.43
[4]; CBD-treated groups condensed, Day 22
  Redness score (mean): 1.50
[4]; CBD-treated groups condensed, Day 24
  Redness score (mean): 1.18
[4]; CBD-treated groups condensed, Day 26
  Redness score (mean): 1.04
[4]; CBD-treated groups condensed, Day 28
  Redness score (mean): 0.89
[4]; CBD-treated groups considered together, p<0.05
  Mean redness scores compared against Group 2 (radiation only): statistically significant reduction
[4]; CBD-treated groups, after Day 14
  Redness scores compared to Group 2: consistently lower
[4]; CBD-treated groups, all time points
  Redness scores compared to Group 3 (olive oil only): consistently lower
[4]; Day 8
  Redness score % Change CBD vs. Group 3: −16.13%
  Redness score % Change CBD vs. Group 2: 87.50%
[4]; Day 10
  Redness score % Change CBD vs. Group 3: −30.61%
[4]; Day 12
  Redness score % Change CBD vs. Group 3: −32.68%
  Redness score % Change CBD vs. Group 2: 3.83%
[4]; Day 14
  Redness score % Change CBD vs. Group 3: −27.45%
  Redness score % Change CBD vs. Group 2: −3.65%
[4]; Day 16
  Redness score % Change CBD vs. Group 3: −29.93%
  Redness score % Change CBD vs. Group 2: −21.32%
[4]; Day 18
  Redness score % Change CBD vs. Group 3: −21.71%
  Redness score % Change CBD vs. Group 2: −24.73%
[4]; Day 20
  Redness score % Change CBD vs. Group 3: −23.70%
  Redness score % Change CBD vs. Group 2: −25.07%
[4]; Day 22
  Redness score % Change CBD vs. Group 3: −32.08%
  Redness score % Change CBD vs. Group 2: −34.00%
[4]; Day 24
  Redness score % Change CBD vs. Group 3: −25.44%
  Redness score % Change CBD vs. Group 2: −42.28%
[4]; Day 26
  Redness score % Change CBD vs. Group 3: −30.56%
  Redness score % Change CBD vs. Group 2: −45.44%
[4]; Day 28
  Redness score % Change CBD vs. Group 3: −42.34%
  Redness score % Change CBD vs. Group 2: −45.68%
[5]; 30 mg/mL CBD in olive oil
  cytotoxicity at 30000 µg/mL: 17%
[5]; 60 mg/mL CBD in olive oil
  cytotoxicity at 60000 µg/mL: 19%
[5]; 120 mg/mL CBD in olive oil
  cytotoxicity at 120000 µg/mL: 16%
[5]; 250 mg/mL CBD in olive oil
  cytotoxicity at 250000 µg/mL: 16%
[6]; 30 mg/mL CBD in olive oil, untreated=0%, Triton-X=100%
  cytotoxicity at 24 h, 30 mg/mL: 4%
[6]; 60 mg/mL CBD in olive oil
  cytotoxicity at 24 h, 60 mg/mL: 4%
[6]; 120 mg/mL CBD in olive oil
  cytotoxicity at 24 h, 120 mg/mL: 5%
[6]; 250 mg/mL CBD in olive oil
  cytotoxicity at 24 h, 250 mg/mL: 11%
